These results are taken from PMC4537067 (ACS infectious diseases, 2015).

The test system of data set [1] is EBOV minigenome activity. As to the kind of experiment: microbe, parasite or virus in culture. Type of data set: cell-based, Ebola virus.
The test system of data set [2] is EBOV minigenome activity. As to the kind of experiment: cells. Conditions: Zaire ebolavirus, HEK-293T, 24 h.
A further data set is described as follows: in vitro. The following applies: human.
Data set [3] has as its system EBOV minigenome activity.
In a further data set the test system is EBOV-GFP. Type of data set: cell-based, Ebola virus.
Data set [4] has as its system EBOV minigenome activity. Type of data set: cell-based, Ebola virus.

Each structure is given as a SMILES string. Counter-ions that a name gives are not always drawn. Like-named read-outs stand apart in the source and are kept apart here. A value given as a limit tells only on which side of the number the result lay.

Broadly, the IC50 is the concentration needed to halve the response being measured. Low values mean inhibition by little substance, high ones a need for much substance. As a reminder, the inhibition is the share of the control response that was lost under treatment.

Regarding `CC1=CC(=O)c2c(O)cccc2C1=O` [plumbagin], in the data set with EBOV minigenome activity [1], the “% inhibition in screen” value stood at 98.3%. This compound also gave an IC50 in the data set on EBOV minigenome activity [2] of 919 nM. In addition, the CC50 in “in vitro” is 756 nM. In addition, in the data set with EBOV minigenome activity [3], the “SI (CC50/IC50)” value was determined as 0.823.
On to `C[C@@H]1C[C@@H]([C@H](O)CC2CC(=O)NC(=O)C2)C(=O)[C@@H](C)C1` [cycloheximide], for which, in the data set on Vero E6 cells, the cytotoxicity result was “cytotoxic at higher concentrations”. In the data set on EBOV minigenome activity [1], the “% inhibition in screen” value was 97.9%. This compound returned an IC50 with EBOV minigenome activity [2] of 608 nM. Besides, the CC50 in the data set “in vitro” was above 50000 nM. The “reduction of EBOV replication (EBOV-GFP)” value in the data set on EBOV-GFP amounted to 96%.
Take `CO[C@H]1C=C[C@@]23c4cc5c(cc4CN(C[C@@H]2O)[C@H]3C1)OCO5` [crinamine]: the “% inhibition in screen” value in the data set with EBOV minigenome activity [1] is 91.5%. In the data set with HEK293T cells, this compound gave a CC50 above 50000 nM. Further, in the data set on EBOV minigenome activity [3], the IC50 was found to be 3790 nM and the “SI (CC50/IC50)” value is given as above 13.196.
In turn, `O=c1[nH]cc(F)c(=O)[nH]1` [fluorouracil] showed a half-inhibitory concentration (IC50) in the data set on EBOV minigenome activity [2] above 50000 nM. In “in vitro”, the CC50 is above 50000 nM.
In the case of `C[C@H]1O[C@@H](O[C@H]2[C@@H](O)C[C@H](O[C@H]3[C@@H](O)C[C@H](O[C@H]4CC[C@@]5(C)[C@H](CC[C@@H]6[C@@H]5CC[C@]5(C)[C@@H](C7=CC(=O)OC7)CC[C@]65O)C4)O[C@@H]3C)O[C@@H]2C)C[C@H](O)[C@@H]1O` [digitoxin], in the data set on EBOV minigenome activity [1], the “% inhibition in screen” value was found to be 92.5%. The compound further registered an IC50 with EBOV minigenome activity [2] of 50 nM. The compound also yielded a CC50 in the data set “in vitro” of 31 nM. Besides, the “SI (CC50/IC50)” value in the data set on EBOV minigenome activity [3] was found to be 0.62.
As for `CC(=O)O[C@@H]1C[C@H]2C(C)(C)C(=O)C=C[C@]2(C)[C@H]2CC[C@@]3(C)[C@H](c4ccoc4)OC(=O)[C@H]4O[C@]43[C@@]21C` [gedunin], the “cell death (cytotoxicity)” value with Vero E6 cells is recorded as “little cell death”. Further, in the data set with EBOV minigenome activity [1], the “% inhibition in screen” value stood at 72.9%. The same compound yielded an IC50 in the data set on EBOV minigenome activity [2] of 803 nM. This compound also gave a CC50 in the data set “in vitro” of 5480 nM. Further, the “SI (CC50/IC50)” value with EBOV minigenome activity [3] was 6.829. The “reduction of virus replication (EBOV-GFP)” value with EBOV-GFP stood at 98%.
Regarding `CC(C)=CCC[C@]1(C)C=Cc2c(O)c3c(c(CC=C(C)C)c2O1)O[C@]12C(=C[C@@H]4CC1C(C)(C)O[C@@]2(C/C=C(/C)C(N)=O)C4=O)C3=O` [gambogic amide], the “% inhibition in screen” value in the data set with EBOV minigenome activity [1] is listed as 100.0%. Further, in the data set on EBOV minigenome activity [2], the 50% inhibitory concentration (IC50) was 1010 nM. The same compound yielded a CC50 in the data set “in vitro” of 454 nM. For the same compound, the “SI (CC50/IC50)” value in the data set with EBOV minigenome activity [3] is 0.45.
Take `O=c1cnn([C@@H]2O[C@H](CO)[C@@H](O)[C@H]2O)c(=O)[nH]1` [6-Azauridine]: the inhibition at 7 µM in the data set on EBOV minigenome activity [1] (Zaire ebolavirus, 24 h, read-out: inhibition of minigenome activity (positive control)) was around 70%.
In the case of `Cc1ccc(C)c(OCCCC(C)(C)C(=O)O)c1` [gemfobrozil], in the data set with EBOV minigenome activity [1], the “% inhibition in screen” value worked out at 62.1%. In addition, in the data set on HEK293T cells, the CC50 was above 50000 nM. Besides, the IC50 with EBOV minigenome activity [3] is above 50000 nM.
Consider `Nc1ncnc2c1ncn2[C@@H]1O[C@H](CO)[C@@H](O)[C@@H]1O` [vidarabine], for which, in the data set on EBOV minigenome activity [1], the “% inhibition in screen” value is 56.1%. In the data set on EBOV minigenome activity [2], this compound showed an IC50 above 50000 nM. This compound displayed a CC50 in the data set “in vitro” above 50000 nM.
As to `COc1ccc(C[C@H](N)C(=O)N[C@H]2[C@@H](O)[C@H](n3cnc4c(N(C)C)ncnc43)O[C@@H]2CO)cc1` [puromycin hydrochloride], the “% inhibition in screen” value in the data set with EBOV minigenome activity [1] turned out to be 99.7%. This compound also displayed an IC50 in the data set on EBOV minigenome activity [2] of 889 nM. For the same compound, the CC50 in “in vitro” amounted to 3590 nM. Besides, the “SI (CC50/IC50)” value in the data set on EBOV minigenome activity [3] came to 4.043.
The like results for `C[C@]12CC[C@H]3[C@@H](CC[C@]4(O)C[C@@H](O)CC[C@]34C=O)[C@@]1(O)CC[C@@H]2C1=CC(=O)OC1` [strophanthidin] were, in that order, 100.0%, 1160 nM, 491 nM and 0.423.
For the compound `CC[C@H]1CN2CCc3cc(OC)c(OC)cc3[C@@H]2C[C@@H]1C[C@H]1NCCc2cc(OC)c(OC)cc21` [emetine], the cytotoxicity entry with Vero E6 cells was “cytotoxic at higher concentrations”. Moreover, the “% inhibition in screen” value with EBOV minigenome activity [1] is given as 98.3%. The midpoint of inhibition in the data set on EBOV minigenome activity [2], the IC50, lay at 1470 nM. In the data set “in vitro”, this compound came in with a CC50 above 50000 nM. Further, the “reduction of EBOV replication (EBOV-GFP)” value in the data set on EBOV-GFP amounted to 99%.
As for `CC(=O)O[C@H]1C[C@H](O[C@H]2[C@@H](O)C[C@H](O[C@H]3[C@@H](O)C[C@H](O[C@H]4CC[C@@]5(C)[C@H](CC[C@@H]6[C@@H]5C[C@@H](O)[C@]5(C)[C@@H](C7=CC(=O)OC7)CC[C@]65O)C4)O[C@@H]3C)O[C@@H]2C)O[C@H](C)[C@H]1O[C@@H]1O[C@H](CO)[C@@H](O)[C@H](O)[C@H]1O` [lanatoside C], the “% inhibition in screen” value in the data set with EBOV minigenome activity [1] is 100.0%. In the data set with EBOV minigenome activity [2], this compound came in with an IC50 of 255 nM. Besides, the CC50 in “in vitro” stood at 177 nM. The “SI (CC50/IC50)” value with EBOV minigenome activity [3] is given as 0.694.
The like results for `CC(=O)Oc1c2c(c(CC=C(C)C)c3c1C(=O)C1=C[C@@H]4CC5C(C)(C)OC(C/C=C(\C)C(=O)O)(C4=O)[C@@]15O3)OC(C)(CCC=C(C)C)C=C2` (stereo partly drawn) [acetyl isogambogic acid] were, in that order, 99.0%, 2940 nM, 2880 nM and 0.983.
With `CN(Cc1cnc2nc(N)nc(N)c2n1)c1ccc(C(=O)N[C@@H](CCC(=O)O)C(=O)O)cc1` [methotrexate], the “% inhibition in screen” value with EBOV minigenome activity [1] amounted to 67.1%. The IC50 with EBOV minigenome activity [2] was above 50000 nM. In addition, in the data set “in vitro”, the CC50 was above 50000 nM.
For `C[C@@]12C(=O)OC(=O)[C@]1(C)[C@H]1CC[C@@H]2O1` [cantharidin], in the data set on EBOV minigenome activity [1], the “% inhibition in screen” value turned out to be 87.3%. This compound also displayed an IC50 with EBOV minigenome activity [2] of 11300 nM. In the data set “in vitro”, the CC50 was above 50000 nM. For the same compound, in the data set on EBOV minigenome activity [3], inhibition was half-maximal at 11300 nM (IC50) and the “SI (CC50/IC50)” value is above 4.415.
Consider `Nc1ncn([C@@H]2O[C@H](CO)[C@@H](O)[C@H]2O)c(=O)n1` [azacitidine], for which the “% inhibition in screen” value in the data set with EBOV minigenome activity [1] is 76.9%. Further, it took 4010 nM to reach half-maximal inhibition in the data set with EBOV minigenome activity [2] (IC50). Further, the CC50 in “in vitro” is above 50000 nM. In addition, the “SI (CC50/IC50)” value in the data set with EBOV minigenome activity [3] is given as above 12.466.
In the case of `COc1c(C)c2c(c(O)c1C/C=C(\C)CCC(=O)O)C(=O)OC2` [mycophenolic acid], in the data set with Vero E6 cells, the “cell death (cytotoxicity)” value was “little cell death”. The “% inhibition in screen” value in the data set on EBOV minigenome activity [1] came out at 90.5%. The compound further yielded an IC50 in the data set with EBOV minigenome activity [2] of 316 nM. This compound showed a CC50 in the data set “in vitro” above 50000 nM. Besides, the “effect of guanosine addition on inhibition of minigenome activity” value in the data set with EBOV minigenome activity [4] is “rescued minigenome activity at all concentrations”. For the same compound, the “reduction of virus replication (EBOV-GFP)” value in the data set on EBOV-GFP was determined as 96%.
On to `CN(C)CCOC(c1ccccc1)c1ccccc1.Cn1c(=O)c2[nH]c(Cl)nc2n(C)c1=O` [dramamine], for which the “% inhibition in screen” value with EBOV minigenome activity [1] was found to be 57.8%. The same compound registered a CC50 in the data set on HEK293T cells above 50000 nM. Moreover, the IC50 with EBOV minigenome activity [3] was above 50000 nM.
